Assay results: patent publication US20240173317A1, “METHODS FOR TREATING PROGRESSIVE FAMILIAL INTRAHEPATIC CHOLESTASIS” (MIRUM PHARMACEUTICALS, INC., priority 2022, published 2024)
Read-outs that look alike come from different tables or passages of the source.

Columns and labels:
participants with ALGS = experiment: sBA in participants with ALGS aged 16 years and older; format: in vivo, human
Experimental: All patients received the daily dose appropriate for their weight, with an adult maximum dose of 28.5 mg/d. ^bBefore age 16 years is defined as the last data point prior to turning 16 years of age. After age 16 years is defined as the first data point after turning 16 years of age.
FIGS. 31A and 31B show a change in ltchRO(Obs) (FIG. 31A) and sBA (FIG. 31B) for participants who initiated MRX treatment at <16 years of age (n=11). Of 11 participants, 9 had ItchRO(Obs) scores available for all time points and were included in the analysis. ^bItchRO(Obs) is a 0-4 scale with >1-point reduction considered clinically meaningful. Mean ItchRO(Obs) was rounded to 1 decimal place. Error bars represent SE. Significance was determined using student t test. ^cMean sBA was rounded to the nearest whole number. Error bars represent SE. ^dAverage of last 2 records prior to age 16 years. ^eAverage of first 2 records after age 16 years. ^fAverage of final 2 records.
FIGS. 32A and 32B show a change in ltchRO(Obs) (FIG. 32A) and sBA (FIG. 32B) for participants who Initiated MRX treatment at ≥16 years of age (n=3). ^aItchRO(Obs) is 0-4 scale with ≥1-point reduction considered clinically meaningful. ^bAverage of final two records.
The efficacy and safety of MRX in participants with ALGS aged ≥16 years transitioning to adult care and participant aged ≥16 years who initiate MRX treatment were studied (FIG. 30). […]

subjects with PFIC = experiment: Total serum bile acid (sBA) level, MARCH-PFIC Phase 3 study; format: in vivo, human; conditions: for percentage of sBA response (sBA responders): Week 18 to Week 26
Experimental: Serum bile acids and other cholestasis biomarkers. Blood samples were collected as described in Table 1 to measure levels of cholestasis biomarkers including total sBA, sBA subspecies, C4, FGF-19, and autotaxin as well as liver related parameters. Subjects were encouraged to fast at least 6 hours prior to collection (water intake was permitted if necessary but not recommended). Total sBA and targeted bile acid subspecies were quantified with liquid chromatography mass spectrometry (LC-MS) methodology for exploratory assessments. In addition, screening total sBA will be assessed with an enzymatic assay for inclusion criteria evaluation. C4, a key intermediate in the pathway for bile acid synthesis from cholesterol, will be determined by a validated LC-MS/MS method. The secondary efficacy endpoints are defined as Mean change in total serum bile acid (sBA) level between baseline and average of Weeks 18, 22, and 26 (FIGS. 11-12); 2) Percentage of ItchRO(Obs) responders from Week 15 to Week 26 (FIGS. 13A and 14A); 3) Percentage of sBA responders from Week 18 to Week 26 (FIGS. 13B and 14B). Pruritus responders are defined as a subject having a 4-week average morning ItchRO (Obs) severity change from baseline of […] OR an average severity score of ≤1.0. For the purpose of determining response, the average severity score from the three 4-week periods (weeks 15-18, 19-22 and 23-26) are used. A subject is defined as an ItchRO non-responder if the 4-week average baseline score is missing OR all three 4-week average (post-baseline) scores are missing. sBA responders are defined as a subject having an average sBA level of <102 μmon (applies only if baseline sBA was ≥102 μmon) OR a ≤−75% average percent change from baseline. For the purpose of determining response, the average sBA value from Weeks 18, 22 and 26 values are used. A subject is defined as an sBA non-responder if the baseline sBA value is missing OR sBA values are missing at all 3 time points (i.e., Weeks 18, 22, and 26). p-values comparing maralixibat to placebo treatment groups are calculated using Barnard's exact test.

patients with PFIC = experiment: Bilirubin, MARCH-ON long-term extension; format: in vivo, human; conditions: MRX-MRX group; Baseline through Week 52
From the text: Eighty-five patients from MARCH trial enrolled in MARCH-ON (Table 10, FIG. 29A). Forty-seven patients had received Maralixibat (MRX-MRX) and 38 had received placebo (PBO-MRX) during MARCH trial.
PFIC subtypes of patients included in the study were: non-truncated bile salt export pump (nt-B SEP, n=27), familial intrahepatic cholestasis-associated protein type 1 (F1C1, n=13); multidrug-resistance 3 protein (MDR3, n=9); tight junction protein 2 (TJP2, n=6); myosin VB (MYO5B, n=2); heterozygosis (n=2); truncated B SEP (t-B SEP, n=9); variant not found (n=8), fluctuating sBA (n=2); and surgery (n=7). Efficacy analyses included n=33 in the MRX-MRX group and n=24 in the PRO-MRX group. Subtypes nt-BSEP, F1C1, MDR3, TJP2, and MYO5B were included in the efficacy analyses. Baseline was defined as the start of maralixibat (MRX) treatment for each group.
Methods: Long-term maintenance of response was assessed for patients who were originally randomized to receive MRX in MARCH and continued with treatment in MARCH-ON (MRX-MRX group; n=33). MRX response was assessed for patients who received PBO in the MARCH study and switched to open-label MRX in MARCH-ON (PBO-MRX group; n=24). Assessments included: pruritus measured by 0-4 scale of ItchRO[Obs], sBA, bilirubin, and growth z-scores, as well as incidence of treatment-emergent adverse events(TEAEs). […]

[1] = system: participants with PFIC 1 or PFIC 2; conditions: cited from earlier work
[2] = All PFIC cohort, average of Weeks 18, 22, 26, FIG. 11B
[3] = BSEP deficiency cohort, average of Weeks 18, 22, 26, FIG. 11A

CCCCC1(CCCC)CS(=O)(=O)c2ccc(N(C)C)cc2[C@@H](c2ccc(OCc3ccc(C[N+]45CCN(CC4)CC5)cc3)cc2)[C@H]1O [maralixibat, 1-(4-((4-((4R,5R)-3,3-dibutyl-7-(dimethylamino)-4-hydroxy-1,1-dioxido-2,3,4,5-tetrahydrobenzo[b]thiepin-5-yl)phenoxy)methyl)benzyl)-1,4-diazabicyclo[2.2.2]octan-1-ium]
improvements in sBA (participants with ALGS; MRX during childhood, maintained into early adulthood, FIG. 31B): significant improvements
improvements in sBA (participants with ALGS; participants receiving MRX in early adulthood, FIG. 32B): significant improvements
reduction of sBA levels (mean change from baseline) (subjects with PFIC; [2]): over 150 μmon
sBA difference from placebo (subjects with PFIC; [2]): 160.403 μmon
percentage of sBA response (sBA responders) (subjects with PFIC; BSEP deficiency cohort, FIG. 13B): 35.7%
reduction of sBA levels (mean change from baseline) (subjects with PFIC; [3]): ~200 µmol/L
sBA difference from placebo (subjects with PFIC; [3]): 186.723 µmol/L
improvements in serum bile acid levels (subjects with PFIC; FIC1, MDR3, TJP2, MYO5B cohorts, FIG. 34A-B): Significant improvements
reduction of sBA levels (mean change from baseline) (subjects with PFIC; FIC1 cohort, FIG. 12A): ~100 µmol/L
sBA difference from placebo (subjects with PFIC; FIC1 cohort, FIG. 12A): 126.382 µmol/L
percentage of sBA response (sBA responders) (subjects with PFIC; FIG. 14B, sentence prints BSEP deficiency cohort): 45.5%
reduction of sBA levels (mean change from baseline) (subjects with PFIC; MDR3 cohort, FIG. 12B): 150 μmon
sBA difference from placebo (subjects with PFIC; MDR3 cohort, FIG. 12B): 135.089 μmon
sBA levels lower at each time point (change from baseline over time) (subjects with PFIC; Week 2 to Week 26, BSEP deficiency group, PFIC group, all study participants, FIG. 15A-C): more than 100 μmon
improvements in serum bile acid levels (subjects with PFIC; full-study population, FIG. 35B): statistically significant and clinically meaningful improvements
improvements in serum bile acid levels (subjects with PFIC; patients with no-variant found, FIG. 35D): demonstrated improvements
bilirubin, change from Baseline (patients with PFIC): -2.64 mg/dL
response in Indigo Phase 2 study ([1]; participants with PFIC 2): had a response
response in Indigo Phase 2 study ([1]; patients with PFIC 1): did not have a response
